24 compounds from patent publication US6352985B1, “Benzimidazole compounds” (Fujisawa Pharmaceutical Co., Ltd., priority 1995, dated 2002) can be followed below.

Structures are written as SMILES.

Tested on in one data set: not given
Test: not given
Details: not given
The term melting point denotes the temperature, or range, at which the solid turns liquid. `Cc1nc2ccc(C(=O)NS(=O)(=O)c3ccc4ccccc4c3)cc2n1Cc1ccccc1Cl.[Na]`: the melting point lay within 352 to 354.5 °C. On the same count and under the same terms, the figure for `Cc1nc2ccc(C(=O)NS(=O)(=O)c3ccc(Cl)cc3)cc2n1Cc1ccccc1Cl.[Na]` is 360 to 362 °C (dec.). Still for that read-out and setting: the figure for `Cc1nc2ccc(C(=O)NS(=O)(=O)C(F)(F)F)cc2n1Cc1ccccc1Cl.Cl` is 332 to 335 °C (dec.). Consider `CCCc1nc2ccc(C(=O)NS(=O)(=O)c3ccccc3)cc2n1Cc1ccc(-c2ccccc2)cc1.[K]`, for which the melting point lay within 279 to 282 °C. Same read-out and setting: the figure for `CC(C)c1nc2ccc(C(=O)NS(=O)(=O)c3ccccc3)cc2n1Cc1ccc(-c2ccccc2)cc1.[K]` is 310.1 to 312.7 °C; for `Cc1nc2ccc(C(=O)NS(=O)(=O)c3cccc4cccnc34)cc2n1Cc1ccccc1Cl.[Na]` it is 348 to 352 °C (dec.); for `Cc1nc2ccc(C(=O)NS(=O)(=O)c3ccc(C(C)(C)C)cc3)cc2n1Cc1ccccc1Cl.[Na]` it is 359.5 to 362 °C. Still for that read-out and setting: the figure for `O=C(NS(=O)(=O)c1ccccc1)c1ccc2nc(C3CC3)n(Cc3ccc(-c4ccccc4)cc3)c2c1.[K]` is 220.8 to 224.8 °C; for `Cc1nc2ccc(C(=O)NS(=O)(=O)c3ccccc3)cc2n1Cc1ccccc1Cl` [Compound (163), 6-benzenesulfonylcarbamoyl-1-(2-chlorobenzyl)-2-methylbenzimidazole] it is 273.5 to 274.3 °C; for `Cc1nc2ccc(C=CC(=O)NS(=O)(=O)c3ccccc3)cc2n1Cc1ccccc1Cl` [Compound (178), N-benzenesulfonyl-3-[1-(2-chlorobenzyl)-2-methylbenzimidazol-6-yl]acrylamide] it is 243.1 to 244.3 °C. Take `Cc1nc2ccc(C(=O)NS(=O)(=O)c3cccc(Cl)c3)cc2n1Cc1ccccc1Cl` [Compound (209), 6-(3-chlorobenzenesulfonylcarbamoyl)-1-(2-chlorobenzyl)-2-methylbenzimidazole]: the melting point was 254.5 to 257.5 °C (dec.).

Consider `COc1ccc(S(=O)(=O)NC(=O)c2ccc3nc(C)n(Cc4ccccc4Cl)c3c2)cc1` [Compound (217), 1-(2-chlorobenzyl)-6-(4-methoxybenzenesulfonylcarbamoyl)-2-methylbenzimidazole], for which the melting point was 271 to 274 °C. On the same count and under the same terms, the result for `Cc1nc2ccc(C(=O)NS(=O)(=O)Cc3ccccc3)cc2n1Cc1ccccc1Cl` [Compound (218), 1-(2-chlorobenzyl)-2-methyl-6-(α-toluenesulfonylcarbamoyl)benzimidazole] reads 193 to 196 °C; that for `Cc1ccc(C)c(S(=O)(=O)NC(=O)c2ccc3nc(C)n(Cc4ccccc4Cl)c3c2)c1` [Compound (219), 1-(2-chlorobenzyl)-6-(2,5-dimethylbenzenesulfonylcarbamoyl)-2-methylbenzimidazole], 266.5 to 267.5 °C; that for `Cc1nc2ccc(C(=O)NS(=O)(=O)c3ccc([N+](=O)[O-])cc3)cc2n1Cc1ccccc1Cl` [Compound (220), 1-(2-chlorobenzyl)-2-methyl-6-(4-nitrobenzenesulfonylcarbamoyl)benzimidazole], 330 to 332 °C.

For `Cc1nc2ccc(C(=O)NS(=O)(=O)c3ccc(C(F)(F)F)cc3)cc2n1Cc1ccccc1Cl` [Compound (221), 1-(2-chlorobenzyl)-2-methyl-6-[4-(trifluoromethyl)benzenesulfonylcarbamoyl]benzimidazole], the melting point lay in the range of 288 to 292 °C. As to `Cc1nc2ccc(C(=O)NS(=O)(=O)c3ccccc3Cl)cc2n1Cc1ccccc1Cl.N` [Compound (222), 6-(2-chlorobenzenesulfonylcarbamoyl)-1-(2-chlorobenzyl)-2-methylbenzimidazole ammonium salt], the melting point is 264 to 267 °C. Same read-out and setting: the result for `CNc1nc2ccc(C(=O)NS(=O)(=O)c3ccccc3)cc2n1Cc1ccc(-c2ccccc2)cc1` [Compound (230), 6-benzenesulfonylcarbamoyl-1-(biphenyl-4-ylmethyl)-2-methylaminobenzimidazole] reads 225 to 228 °C. The same measure, in the same setting: the result for `Nc1nc2ccc(C(=O)NS(=O)(=O)c3ccccc3)cc2n1Cc1ccc(-c2ccccc2)cc1` [Compound (231), 2-amino-6-benzenesulfonylcarbamoyl-1-(biphenyl-4-ylmethyl)benzimidazole] reads 352.5 to 355 °C; that for `Cc1nc2ccc(CCC(=O)NS(=O)(=O)c3ccccc3)cc2n1Cc1ccccc1Cl` [Compound (266), N-benzenesulfonyl-3-[1-(2-chlorobenzyl)-2-methylbenzimidazole-6-yl]propionamide], 229.8 to 233 °C; that for `CCCCS(=O)(=O)NC(=O)c1ccc2nc(C)n(Cc3ccc(C(=O)c4ccccc4)cc3)c2c1` [Compound (373), 1-[(4-benzoyl)benzyl]-6-(1-butanesulfonylcarbamoyl)-2-methylbenzimidazole], 111 to 112.4 °C. On the same count and under the same terms, the figure for `CCCCS(=O)(=O)NC(=O)c1ccc2nc(O)n(Cc3ccc(Cl)cc3Cl)c2c1` [Compound (379), 6-(1-butanesulfonylcarbamoyl)-1-(2,4-dichlorobenzyl)-2-hydroxybenzimidazole] is 254 to 256 °C.

For a further data set, the system named is db/db mice. As to the kind of experiment: Test for activity of decreasing plasma glucose using db/db mice. The data set is classed as in vivo. As to conditions: female db/db mice, dose 10 mg/kg mixed with powdered chow for 14 days; difference between db/db and +/+ mouse defined as 100%. The protocol:
Test for activity of decreasing plasma glucose using db/db mice
Five-week-old female mice [C57BL/KsJ-dbm db+/db+, C57BL/KsJ-dbm +m/+m (Jackson Laboratory) were purchased, and were kept for 2 to 3 weeks. Then, these mice were used in the test.
A test compound was mixed with a powdered chow (CE-2, made by Nippon Clea) using a mortar. According to the amount of food intake of the mouse, the mixing ratios, 0.1%, 0.03%, and 0.01% corresponded to 100, 30, and 10 mg/kg body weight, respectively. The mixed chow was changed twice a week. The feed amount and the remaining amount were recorded, and the intake was calculated from the difference therebetween.
The female db/db mice were grouped according to the body weight, the plasma glucose and the plasma triglyceride concentrations. Then, the mixture containing the test compound was administered to the mice for 14 days (from 8 to 10 weeks old). […] Plasma glucose, triglyceride, and insulin concentrations were measured on day 0 and day 14 as well as plasma glucose and triglyceride concentrations on day 7. The body weight was measured on day 0, day 7, and day 14. […]
The plasma glucose was measured by a glucose oxidase method (Glucose CII-Test Wako made by Wako Pure Chemical Industries, Ltd.) using from 10 to 15 μl of plasma. The plasma triglyceride concentration was measured by a GPO-p-chlorophenol method (Triglyceride G-Test Wako made by Wako Pure Chemical Industries, Ltd.) or a GPO-DAOS method (Triglyceride E-Test Wako) using from 10 to 15 μl of plasma. […] The plasma insulin concentration was measured by radio immuno assay method (Phadesef Insulin RIA Kit made by Cabi Pharmacia) using 20 μl of plasma (which can be stored at −20° C.).
The difference in the plasma glucose and the plasma triglyceride concentrations betweeen the db/db mouse and the +/+ mouse was defined as 100%, and the rate (%) of decrease in the plasma glucose and the plasma triglyceride concentrations of the group to which the test compound was administered was calculated.
Regarding `CCCCS(=O)(=O)NC(=O)c1ccc2nc(C)n(Cc3ccc(-c4ccccc4)cc3)c2c1` [Compound (172), 1-(biphenyl-4-ylmethyl)-6-(1-butanesulfonylcarbamoyl)-2-methylbenzimidazole], the “Activity of decreasing plasma glucose (%)” value is on record as 70-80%.

Still in this data set, the particulars now being: female db/db mice, dose 30 mg/kg mixed with powdered chow for 14 days; difference between db/db and +/+ mouse defined as 100%.
`Cc1nc2ccc(C(=O)NS(=O)(=O)c3ccccc3)cc2n1Cc1ccccc1Cl` [Compound (163), 6-benzenesulfonylcarbamoyl-1-(2-chlorobenzyl)-2-methylbenzimidazole]: the “Activity of decreasing plasma glucose (%)” value is reported as 72%. `O=C(NS(=O)(=O)c1ccccc1)c1ccc2nc(C3CC3)n(Cc3ccccc3F)c2c1` [Compound (177), 6-benzenesulfonylcarbamoyl-2-cyclopropyl-1-(2-fluorobenzyl)benzimidazole]: the “Activity of decreasing plasma glucose (%)” value stood at 34.5%.
